Test results as given in patent US20200181671A1, “Method for Increasing Content of Mogroside V in Siraitia Grosvenorii Suspended Cells” (Guilin Layn Natural Ingredients Corp, priority 2017, published 2020).

Experiments:
[1] = system: Siraitia Grosvenorii Cell Culture System; conditions: 500 mg/L; cited from earlier work
[2] = system: Siraitia grosvenorii suspended cells; assay: Content (yield) of mogroside V in Siraitia grosvenorii suspended cells under different treatment conditions, HPLC; format: cell-based
Description: (§1) Weighing 1.5 g Siraitia grosvenorii dry weight cells, adding 60% ethanol at a feed-to-liquid ratio of 15:1, ultrasonically extracting for 40 min, extracting for 2 h at 90° C. in a slightly boiling state, repeating the extraction for 3 times, and combining the extracts to concentrate them to 5 mL in a rotary evaporator. The concentrate was filtered through a 0.22 μm filtration membrane, and then qualitative and quantitative analysis was performed using a high-performance liquid chromatograph.
Chromatographic conditions: The chromatographic column was an inverted C18 column, 4.6 mm×250 mm; the mobile phase was water-acetonitrile at a ratio of 78:22, the flow rate was 1.0 mL/min; and the detection wavelength was 203 nm.

[3] = system: Siraitia grosvenorii suspended cells; assay: as above; format: cell-based; conditions: suspended cells in the logarithmic growing period treated with methyl jasmonate alone
[4] = system: suspension culture cells of Maackia amurensis Rupr. et Maxim; conditions: 200 μmol/L, 9 days; cited from earlier work
[5] = system: Taxus chinensis suspended cells; conditions: 100 μmol/L; cited from earlier work
[6] = system: pueraria suspended cells; conditions: 1.0 mg/L; cited from earlier work
[7] = system: Siraitia grosvenorii suspended cells; assay: Content of mogroside II in Siraitia grosvenorii suspended cells at the peak of mogroside V, HPLC; format: cell-based; conditions: n = 5, x ± s
Description: as §1, with “feed to liquid” for “feed-to-liquid”
Chromatographic conditions: The chromatographic column was a ZORBAX SBC C18 column, 4.6 mm×150 mm; the mobile phase was water-acetonitrile gradient elution (0-25 min, 13.5% to 35% acetonitrile), the flow rate was 0.8 mL/min; and the detection wavelength was 203 nm.

SMILES: N[C@@H](Cc1ccccc1)C(=O)O [phenylalanine]
- increase of the total amount of mogroside V compared with the control group [1]: 260.38%

SMILES: CC/C=C\CC1C(=O)CCC1CC(=O)OC (stereo not shown) [methyl jasmonate, Methyl jasmonate]
- total content of mogroside V ([2]; inducer added alone, compared with the normal culture group, result in words): decreased compared with the normal culture group
- amount of synthesis of mogroside V per unit time ([2]; suspended cells in the logarithmic growing period treated with methyl jasmonate alone): increased
- cell browning [3]: cell browning phenomenon was obvious
- content of isoflavone, of that of the control of the same period [4]: 417.18%
- increase of the content of paclitaxel [5]: 10 times
- content of puerarin in the cell culture [6]: increased

SMILES: CC/C=C\CC1C(=O)CCC1CC(=O)OC (stereo not shown) [Comparative Example 4]
- yield of mogroside V per unit time ([2]; 1 d of culture, n = 5, x ± s): 31.1 ± 0.8 g/L
- yield of mogroside V per unit time ([2]; 3 d of culture, n = 5, x ± s): 32.6 ± 0.9 g/L
- yield of mogroside V per unit time ([2]; 5 d of culture, n = 5, x ± s): 33.2 ± 1.1 g/L
- yield of mogroside V per unit time ([2]; 7 d of culture, n = 5, x ± s): 33.5 ± 1.5 g/L
- yield of mogroside V per unit time ([2]; 9 d of culture, n = 5, x ± s): 39.5 ± 2.0 g/L
- yield of mogroside V per unit time ([2]; 11 d of culture, n = 5, x ± s): 46.5 ± 1.8 g/L
- yield of mogroside V per unit time ([2]; 13 d of culture, n = 5, x ± s): 51.6 ± 1.8 g/L
- yield of mogroside V per unit time ([2]; 15 d of culture, n = 5, x ± s): 53.6 ± 1.5 g/L
- yield of mogroside V per unit time ([2]; 17 d of culture, n = 5, x ± s): 54.5 ± 1.6 g/L
- yield of mogroside V per unit time ([2]; 19 d of culture, n = 5, x ± s): 55.7 ± 1.8 g/L
- yield of mogroside V per unit time ([2]; 21 d of culture, n = 5, x ± s): 56.8 ± 2.0 g/L
- yield of mogroside V per unit time ([2]; 23 d of culture, n = 5, x ± s): 58.2 ± 2.2 g/L
- yield of mogroside V per unit time ([2]; 25 d of culture, n = 5, x ± s): 55.2 ± 2.4 g/L
- yield of mogroside V per unit time ([2]; 27 d of culture, n = 5, x ± s): 51.4 ± 2.5 g/L
- yield of mogroside V per unit time ([2]; 29 d of culture, n = 5, x ± s): 46.5 ± 2.4 g/L
- yield of mogroside V per unit time ([2]; 31 d of culture, n = 5, x ± s): 41.2 ± 2.5 g/L
- Peak yield (maximum yield) of mogroside V ([2]; maximum over days 1 to 31 of culture, n = 5, x ± s): 58.2 ± 2.2 g/L
- Content of mogroside II [7]: 32.8 ± 2.6 g/L
